Values after ≈ are worked out from the molar mass of the structure shown. “Also recorded” adds a separate entry of the source.

The record followed here is US4308210A, “Nanaomycin B and therapeutic compositions containing same” (The Kitasato Institute, priority 1976, dated 1981).

Data set [1] relates to Staphylococcus aureus FDA 209P. As to the kind of experiment: Antimicrobial spectrum, MIC, nutrient agar. It counts as cell-based. As to conditions: FDA209P, 48 h, nutrient agar (pH 7.0, 2 days, 37° C.).
The subject of a further data set is Sarcina lutea PCI 1001. Put plainly: Antimicrobial spectrum, MIC, nutrient agar. It counts as cell-based. Conditions: Micrococcus luteus, PCI1001, 48 h; nutrient agar (pH 7.0, 2 days, 37° C.).
In the next data set the test system is Trichophyton pedis 804. Put plainly: Antimicrobial spectrum, MIC, potato agar. It counts as cell-based. Conditions: Trichophyton pedis, 804, 96 h; potato agar (pH 6.4, 4 days, 27° C.).
The next data set concerns Mycoplasma gallinarum. Put plainly: Antimicrobial spectrum, MIC, PPLO agar. Format: cell-based. Conditions: Mycoplasmopsis gallinarum, 192 h, Hokken PPLO agar (pH 7.8, 8 days, 37° C.). How it is done:
(§1) H Hokken PPLO agar (pH 7.8, 8 days, 37° C.)
(§2) MIC Minimal inhibitory concentration

In the next data set the test system is Mycoplasma iners. Put plainly: Antimicrobial spectrum, MIC, PPLO agar. It counts as cell-based. As to conditions: Mycoplasmopsis iners, 192 h; Hokken PPLO agar (pH 7.8, 8 days, 37° C.). The method, then: as §1, §2
Data set [2] concerns various fungi of some species belonging to the genus Trichophyton. Put plainly: Growth inhibition of fungi of the genus Trichophyton (text summary of Table 1). It counts as cell-based.
Another data set relates to mycoplasma. Put plainly: Activity against mycoplasma. As to conditions: in words. Format: cell-based. The method, then:
as §1
E Eiken PPLO agar (pH 7.8, 8 days, 37° C.)
as §2

The nature of data set [3]: Conversion of nanaomycin B into nanaomycin A depending on pH. It counts as physicochemical. How it is done:
Nanaomycin B (200 mg) is dissolved in 60 ml of 0.1 N sodium hydroxide and the solution is allowed to stand for 10 minutes. After adjusting to pH 2.0 with 6 N hydrochloric acid, the product is extracted with ethyl acetate. The extract is evaporated and orange yellow needles are obtained from an ethanol solution of the product. The compound is identified as nanaomycin A by the melting point, IR spectrum and thin-layer chromatography.

Take `CC1OC(CC(=O)O)CC2C(=O)c3cccc(O)c3C(=O)C12O` (stereo not shown) [Nanaomycin B]: the MIC in data set [1] was 3.9 µg/mL (≈ 12.2 µM); in the data set with Sarcina lutea PCI 1001 it was 2 µg/mL (≈ 6.24 µM); in the data set with Trichophyton pedis 804 it was 3.1 µg/mL (≈ 9.68 µM); in the data set with Mycoplasma gallinarum, 3.12 µg/mL (≈ 9.74 µM); in the data set with Mycoplasma iners, 3.12 µg/mL (≈ 9.74 µM); in data set [2] (Trichophyton, 96 h, summary of Table 1, read-out: growth inhibited at a concentration), at most 25 µg/mL. For the same compound, the activity on trycophyton entry in data set [2] (in words) was “active”. Further, the activity against mycoplasma result in the data set on mycoplasma is on record as “high activity; also recorded: especially strong activity”. The “conversion into nanaomycin A in an acidic or neutral condition” value in data set [3] (acidic or neutral condition) is given as “gradually converted”. The “conversion into nanaomycin A in an alkaline condition” value in data set [3] (alkaline condition) was “easily converted into nanaomycin A”.
